Residues, ends and D or L forms follow the SMILES beside them.
Experiments:
L132 (lung) = test: In vitro cytotoxic activity, MTT assay, 72 hours; format: cell-based, human
Method: (§1) The cytotoxic activity of synthesized peptides was tested on six human tumor cell lines namely MCF7 (breast), U373 (glioblastoma), PTC, (colon), L132 (lung), Su.86.86 (pancreas), and KB (oral). The tumor cells were collected at exponential growth phase and resuspended in medium (1.5 x 10^6 cells/ml in RPMI 1640 containing 10% FBS). 150µL of medium was added to the wells of a 96-well tissue culture plate (Nunc, Denmark) followed by 30µl of cell suspension. The plate was left in an incubator (37°C, 5% CO2) overnight. 20µl of the peptide (100 pM to 10 µM concentration) was added to marked wells of the 96-well plate. Each concentration was plated in triplicate. 20µl of medium alone was added to control wells while wells without cells served as blanks. A total volume of 200µL was ensured in each well and plate was left in incubator (37°C, 5% CO2). After 72 hours of incubation an MTT assay was performed and percentage cytotoxicity was calculated with respect to control cells.

MCF7 (breast) = test: In vitro cytotoxic activity, MTT assay, 72 hours; format: cell-based, human
Method: as §1

PTC, (colon) = test: In vitro cytotoxic activity, MTT assay, 72 hours; format: cell-based, human
Method: as §1

Su.86.86 (pancreas) = test: In vitro cytotoxic activity, MTT assay, 72 hours; format: cell-based, human
Method: as §1

U373 (glioblastoma) = test: In vitro cytotoxic activity, MTT assay, 72 hours; format: cell-based, human
Method: as §1

ECV304 (Endothelial) = test: In vitro cytotoxic activity of lipo conjugates, MTT assay, 48 hours; format: cell-based
Method: (§2) The cytotoxic effect of lipo-conjugates of substance P analogs SEQ ID NO: 6, SEQ ID NO: 7 and SEQ ID NO: 8, was studied by MTT assay which is based on the principle of uptake of MTT [3-[4,5-dimethylthiazol-2-yl]-2,5-diphenyl tetrazolium bromide], a tetrazolium salt by the metabolically active cells where it is metabolized by active mitochondria in to a blue colored formazan product which can be read spectrophotometrically. Briefly, tumor cells - KB (Oral squamous), U87MG (Blioblastoma), HBL100 (Breast), HeP2 (Larngeal), ECV304 (Endothelial), PA-1 (Ovary) and L132 (Lunng) were incubated with the peptide analogs for 48 hours at 37°C in a 96-well culture plate, followed by the addition of 100 µg MTT and further incubation of 1 hour. The formazan crystals formed inside the cells were dissolved with a detergent comprising of 10% Sodium dodecyl sulfate and 0.01 N HCl and optical density read on a multiscan ELISA reader. The optical density was directly proportional to the number of proliferating and metabolically active cells. SEQ ID NO: 6

HBL100 (Breast) = test: as above; format: cell-based
Method: as §2

HeP2 (Larngeal) = test: as above; format: cell-based
Method: as §2

KB (Oral squamous) = test: as above; format: cell-based
Method: as §2

L132 (Lunng) = test: as above; format: cell-based
Method: as §2

PA-1 (Ovary) = test: as above; format: cell-based
Method: as §2

U87MG (Blioblastoma) = test: as above; format: cell-based
Method: as §2

## CC(C)C[C@H](NC(=O)[C@@H](Cc1c[nH]c2ccccc12)NC(=O)[C@H](Cc1ccccc1)NC(=O)[C@@H](Cc1c[nH]c2ccccc12)NC(=O)[C@H](CCC(N)=O)NC(=O)[C@@H](Cc1ccccc1)NC(=O)[C@@H]1CCCN1C(=O)[C@H](CCCCN)NC(=O)[C@@H]1CCCN1C(=O)[C@H](N)CCCNC(=N)N)C(=O)NC1(C(N)=O)CCCC1 [SEQ ID NO: 5, D-Arg-Pro-Lys-Pro-D-Phe-Gln-D-Trp-Phe-D-Trp-Leu-Ac5c-NH2] (HELM PEPTIDE1{[dR].P.K.P.[dF].Q.[dW].F.[dW].L.[O=C(C1(N[*:1])CCCC1)[*:2]].[am]}$$$$V2.0)
L132 (lung); 100pM
  Percentage cytotoxicity at different concentrations: 18±3.4%
L132 (lung); 1nM
  Percentage cytotoxicity at different concentrations: 15 ± 5.8%
L132 (lung); 10nM
  Percentage cytotoxicity at different concentrations: 19 ± 3.3%
L132 (lung); 100nM
  Percentage cytotoxicity at different concentrations: 21 ± 1.2%
L132 (lung); 1µM
  Percentage cytotoxicity at different concentrations: 20 ± 2.3%
L132 (lung); 10µM
  Percentage cytotoxicity at different concentrations: 23 ± 2.3%
MCF7 (breast); MCF-7, 100pM
  Percentage cytotoxicity at different concentrations: Nil
MCF7 (breast); MCF-7, 1nM
  Percentage cytotoxicity at different concentrations: 2.4 ± 1.2%
MCF7 (breast); MCF-7, 10nM
  Percentage cytotoxicity at different concentrations: 7.5 ± 1.5%
MCF7 (breast); MCF-7, 100nM
  Percentage cytotoxicity at different concentrations: 8.6 ± 1.6%
MCF7 (breast); MCF-7, 1µM
  Percentage cytotoxicity at different concentrations: 12.4 ± 2.6%
MCF7 (breast); MCF-7, 10µM
  Percentage cytotoxicity at different concentrations: 18.4 ± 6.4%
PTC, (colon); 100pM
  Percentage cytotoxicity at different concentrations: Nil
PTC, (colon); 1nM
  Percentage cytotoxicity at different concentrations: 3.1 ± 0.5%
PTC, (colon); 10nM
  Percentage cytotoxicity at different concentrations: 3.1 ± 1.9%
PTC, (colon); 100nM
  Percentage cytotoxicity at different concentrations: 6.7 ± 1.3%
PTC, (colon); 1µM
  Percentage cytotoxicity at different concentrations: 25.5 ± 4.8%
PTC, (colon); 10µM
  Percentage cytotoxicity at different concentrations: 35.5 ± 4.8%
Su.86.86 (pancreas); Su8686, 100pM
  Percentage cytotoxicity at different concentrations: Nil
Su.86.86 (pancreas); Su8686, 1nM
  Percentage cytotoxicity at different concentrations: 3 ± 0.3%
Su.86.86 (pancreas); Su8686, 10nM
  Percentage cytotoxicity at different concentrations: 12 ± 2.8%
Su.86.86 (pancreas); Su8686, 100nM
  Percentage cytotoxicity at different concentrations: 9 ± 3.8%
Su.86.86 (pancreas); Su8686, 1µM
  Percentage cytotoxicity at different concentrations: 22 ± 3.3%
Su.86.86 (pancreas); Su8686, 10µM
  Percentage cytotoxicity at different concentrations: 25 ± 4.3%
U373 (glioblastoma); 100pM
  Percentage cytotoxicity at different concentrations: 3.7± 0.5%
U373 (glioblastoma); 1nM
  Percentage cytotoxicity at different concentrations: 3.1 ± 0.5%
U373 (glioblastoma); 10nM
  Percentage cytotoxicity at different concentrations: 5.0 ± 0.7%
U373 (glioblastoma); 100nM
  Percentage cytotoxicity at different concentrations: 4.5 ± 0.5%
U373 (glioblastoma); 1µM
  Percentage cytotoxicity at different concentrations: 17.06 ± 1.9%
U373 (glioblastoma); 10µM
  Percentage cytotoxicity at different concentrations: 37.2 ± 5.3%

## CC(=O)N[C@H](CCCNC(=N)N)C(=O)N1CCC[C@H]1C(=O)N[C@@H](CCCCN)C(=O)N1CCC[C@H]1C(=O)N[C@H](Cc1ccccc1)C(=O)N[C@@H](CCC(N)=O)C(=O)N[C@H](Cc1c[nH]c2ccccc12)C(=O)N[C@@H](Cc1ccccc1)C(=O)N[C@H](Cc1c[nH]c2ccccc12)C(=O)N[C@@H](CC(C)C)C(=O)NC1(C(N)=O)CCCC1 [SEQ ID NO: 6, Acetyl-D-Arg-Pro-Lys-Pro-D-Phe-Gln-D-Trp-Phe-D-Trp-Leu-Ac5c-NH2] (HELM PEPTIDE1{[ac].[dR].P.K.P.[dF].Q.[dW].F.[dW].L.[O=C(C1(N[*:1])CCCC1)[*:2]].[am]}$$$$V2.0)
ECV304 (Endothelial); 1nM
  Percentage cytotoxicity at different concentrations: 9.0 ± 3.7%
ECV304 (Endothelial); 10nM
  Percentage cytotoxicity at different concentrations: 13.8 ± 3.3%
ECV304 (Endothelial); 100nM
  Percentage cytotoxicity at different concentrations: 15.9 ± 2.3%
ECV304 (Endothelial); 1µM
  Percentage cytotoxicity at different concentrations: 12.9 ± 2.2%
HBL100 (Breast); 1nM
  Percentage cytotoxicity at different concentrations: 28.5 ± 4.5%
HBL100 (Breast); 10nM
  Percentage cytotoxicity at different concentrations: 28.4 ± 1.8%
HBL100 (Breast); 100nM
  Percentage cytotoxicity at different concentrations: 31.8 ± 1.5%
HeP2 (Larngeal); 1nM
  Percentage cytotoxicity at different concentrations: 10.0 ± 3.2%
HeP2 (Larngeal); 10nM
  Percentage cytotoxicity at different concentrations: 14.8 ± 4.4%
HeP2 (Larngeal); 100nM
  Percentage cytotoxicity at different concentrations: 24.9 ± 1.5%
HeP2 (Larngeal); 1µM
  Percentage cytotoxicity at different concentrations: 13.8 ± 2.4%
KB (Oral squamous); 1nM
  Percentage cytotoxicity at different concentrations: 28.0 ± 2.3%
KB (Oral squamous); 10nM
  Percentage cytotoxicity at different concentrations: 29.0 ± 1.3%
KB (Oral squamous); 100nM
  Percentage cytotoxicity at different concentrations: 18.0 ± 2.6%
KB (Oral squamous); 1µM
  Percentage cytotoxicity at different concentrations: 2.0 ± 1.3%
L132 (Lunng); 1nM
  Percentage cytotoxicity at different concentrations: 14.9 ± 2.9%
L132 (Lunng); 10nM
  Percentage cytotoxicity at different concentrations: 24.7 ± 3.2%
L132 (Lunng); 100nM
  Percentage cytotoxicity at different concentrations: 19.5 ± 4.6%
L132 (Lunng); 1µM
  Percentage cytotoxicity at different concentrations: 19.7 ± 2.5%
PA-1 (Ovary); 1nM
  Percentage cytotoxicity at different concentrations: 8.0 ± 24%
PA-1 (Ovary); 10nM
  Percentage cytotoxicity at different concentrations: 22.0 ± 3.4%
PA-1 (Ovary); 100nM
  Percentage cytotoxicity at different concentrations: 25.4 ± 2.6%
PA-1 (Ovary); 1µM
  Percentage cytotoxicity at different concentrations: 13.9 ± 3.3%
U87MG (Blioblastoma); 1nM
  Percentage cytotoxicity at different concentrations: 26.9 ± 3.5%
U87MG (Blioblastoma); 10nM
  Percentage cytotoxicity at different concentrations: 32.9 ± 2.4%
U87MG (Blioblastoma); 100nM
  Percentage cytotoxicity at different concentrations: 34.7 ± 1.9%
U87MG (Blioblastoma); 1µM
  Percentage cytotoxicity at different concentrations: 31.8 ± 3.2%

## CCCCCCCC(=O)N[C@H](CCCNC(=N)N)C(=O)N1CCC[C@H]1C(=O)N[C@@H](CCCCN)C(=O)N1CCC[C@H]1C(=O)N[C@H](Cc1ccccc1)C(=O)N[C@@H](CCC(N)=O)C(=O)N[C@H](Cc1c[nH]c2ccccc12)C(=O)N[C@@H](Cc1ccccc1)C(=O)N[C@H](Cc1c[nH]c2ccccc12)C(=O)N[C@@H](CC(C)C)C(=O)NC1(C(N)=O)CCCC1 [SEQ ID NO: 8, Octanoyl-D-Arg-Pro-Lys-Pro-D-Phe-Gln-D-Trp-Phe-D-Trp-Leu-Ac5c-NH2] (HELM PEPTIDE1{[CCCCCCCC(=O)[*:2]].[dR].P.K.P.[dF].Q.[dW].F.[dW].L.[O=C(C1(N[*:1])CCCC1)[*:2]].[am]}$$$$V2.0)
ECV304 (Endothelial); 1nM
  Percentage cytotoxicity at different concentrations: 16.9 ± 3.5%
ECV304 (Endothelial); 10nM
  Percentage cytotoxicity at different concentrations: 31.9 ± 3.3%
ECV304 (Endothelial); 100nM
  Percentage cytotoxicity at different concentrations: 24.6 ± 2.3%
ECV304 (Endothelial); 1µM
  Percentage cytotoxicity at different concentrations: 17.9 ± 2.4%
HBL100 (Breast); 1nM
  Percentage cytotoxicity at different concentrations: 9.0 ± 4.5%
HBL100 (Breast); 10nM
  Percentage cytotoxicity at different concentrations: 28.6 ± 3.8%
HBL100 (Breast); 100nM
  Percentage cytotoxicity at different concentrations: 30.6 ± 1.5%
HBL100 (Breast); 1µM
  Percentage cytotoxicity at different concentrations: 25.8 ± 1.4%
HeP2 (Larngeal); 1nM
  Percentage cytotoxicity at different concentrations: 12.5 ± 3.2%
HeP2 (Larngeal); 10nM
  Percentage cytotoxicity at different concentrations: 15.5 ± 4.4%
HeP2 (Larngeal); 100nM
  Percentage cytotoxicity at different concentrations: 24.9 ± 2.5%
HeP2 (Larngeal); 1µM
  Percentage cytotoxicity at different concentrations: 12.9 ± 3.4%
KB (Oral squamous); 1nM
  Percentage cytotoxicity at different concentrations: 28.0 ± 3.5%
KB (Oral squamous); 10nM
  Percentage cytotoxicity at different concentrations: 29.0%
KB (Oral squamous); 100nM
  Percentage cytotoxicity at different concentrations: 23.0 ± 3.2%
KB (Oral squamous); 1µM
  Percentage cytotoxicity at different concentrations: 19.0 ± 4.3%
L132 (Lunng); 1nM
  Percentage cytotoxicity at different concentrations: 11.9 ± 4.9%
L132 (Lunng); 10nM
  Percentage cytotoxicity at different concentrations: 27.5 ± 3.5%
L132 (Lunng); 100nM
  Percentage cytotoxicity at different concentrations: 16.9 ± 3.6%
L132 (Lunng); 1µM
  Percentage cytotoxicity at different concentrations: 18.6 ± 2.4%
PA-1 (Ovary); 1nM
  Percentage cytotoxicity at different concentrations: 22.1 ± 3.4%
PA-1 (Ovary); 10nM
  Percentage cytotoxicity at different concentrations: 26.9 ± 3.4%
PA-1 (Ovary); 100nM
  Percentage cytotoxicity at different concentrations: 39.0 ± 2.6%
PA-1 (Ovary); 1µM
  Percentage cytotoxicity at different concentrations: 34.4 ± 3.4%
U87MG (Blioblastoma); 1nM
  Percentage cytotoxicity at different concentrations: 23.9 ± 3.3%
U87MG (Blioblastoma); 10nM
  Percentage cytotoxicity at different concentrations: 33.9 ± 2.2%
U87MG (Blioblastoma); 100nM
  Percentage cytotoxicity at different concentrations: 28.9 ± 1.4%
U87MG (Blioblastoma); 1µM
  Percentage cytotoxicity at different concentrations: 21.8 ± 3.4%

— patent EP1337551B1, “SUBSTANCE P ANALOGS FOR THE TREATMENT OF CANCER” (DABUR PHARMA LTD., priority 2000, dated 2002)
